Results taken from US20230321059A1, “MEPYRAMINE FOR USE IN THE TOPICAL TREATMENT OF NEUROPATHIC PAIN” (Assistance Publique - Hopitaux de Paris, priority 2020, published 2023).
Where two headings read alike, the source gives them in different places.

Biological target: T1, human Nav1.7 (Homo sapiens, UniProt Q15858)
T1 construct: expressed in transfected cells; host or cells: HEK 293T
Test: Patch clamp recording of heterologously expressed human Nav1.7 currents in HEK 293T cells
Assay type: cell-based
Settings: for IC50: 50-ms depolarizing pulse to 0 mV, HEK 293T cells, mean±SEM (n=4-10), read-out: IC50 for human Nav1.7 inhibition
Procedure: FIG. 1. A) Families of human Nav1.7 current traces in the presence of increasing concentrations of mepyramine (0-100 μM). The current was elicited by a 50-ms depolarizing pulse to 0 mV from a holding potential of −100 mV (top) or −60 mV (bottom). Voltage steps were applied every 15 s. B) Cumulative dose-response curves for human Nav1.7 inhibition by mepyramine derived from experiments as in A. The IC50 values were 4±0.1 μM at Vh of −60 mV (empty circles) or 15.3±0.1 μM at Vh of −100 mV (filled circles). Each data point is the mean±SEM (n=4-10). C) Representative I-V curve family of hNav1.7 currents recorded using a protocol (inset) where cells were depolarized to a variety of potentials from a holding potential of −100 mV. D) Normalized human Nav1.7 activation curves obtained from experiments as in C. Curves were fit by using a first-order Boltzmann relations (n=16).
Human embryonic kidney (HEK) 293T cells were cultured as described in Hao et al. (Neuron, 2013, 77:899-914) and were recorded 48 hours after co-transfection with human Nav1.7 (hNav1.7) and green fluorescent protein clones. Patch clamp recordings were performed using borosilicate electrodes (Harvard Apparatus) having a resistance of […] when filled with the intracellular solution. Recordings were made at room temperature (20-24° C.) using an Axopatch 200B amplifier (Axon Instruments), filtered at 1 kHz, and digitally sampled at 5-20 kHz. Data acquisition was performed with pClamp 10.2, and data were analyzed using Prism 4 software.
For voltage clamp protocols, currents were leak-subtracted by using a P/6 protocol. Voltage errors were minimized using 75-80% series resistance compensation. Intracellular pipette solution consisted of (mM): 130 CsCl, 10 Hepes, 8 NaCl, 0.4 NaGTP, 4 MgATP, 1 MgCl2, 1 CaCl2 and 10 EGTA (adjusted to pH7.3 with CsOH, ˜300 mOsm/l). […] Stock solution of Mepyramine […] was dissolved in distilled water. Cells were perfused with bath solution at flow rate of 5 mL/min.
The dose-response curve for mepyramine was fitted with the Hill equation: I/Imax=[M]^nH/(IC50^nH+[M]^nH), where IC50 is the half-maximal inhibitory concentration and nH the Hill coefficient. The activation curve (G-V) was fitted using Boltzmann function: G/Gmax=1/(1+exp^[(V1/2−V)/k]) where G/Gmax is the normalized conductance, V1/2 is the voltage of half-maximum conductance activation, and k is the steepness factor. Data were presented as mean±SEM.

[1] = HEK cells, in the absence of histamine and in the absence of H1 receptors

T1 sequence (Q15858 whole entry): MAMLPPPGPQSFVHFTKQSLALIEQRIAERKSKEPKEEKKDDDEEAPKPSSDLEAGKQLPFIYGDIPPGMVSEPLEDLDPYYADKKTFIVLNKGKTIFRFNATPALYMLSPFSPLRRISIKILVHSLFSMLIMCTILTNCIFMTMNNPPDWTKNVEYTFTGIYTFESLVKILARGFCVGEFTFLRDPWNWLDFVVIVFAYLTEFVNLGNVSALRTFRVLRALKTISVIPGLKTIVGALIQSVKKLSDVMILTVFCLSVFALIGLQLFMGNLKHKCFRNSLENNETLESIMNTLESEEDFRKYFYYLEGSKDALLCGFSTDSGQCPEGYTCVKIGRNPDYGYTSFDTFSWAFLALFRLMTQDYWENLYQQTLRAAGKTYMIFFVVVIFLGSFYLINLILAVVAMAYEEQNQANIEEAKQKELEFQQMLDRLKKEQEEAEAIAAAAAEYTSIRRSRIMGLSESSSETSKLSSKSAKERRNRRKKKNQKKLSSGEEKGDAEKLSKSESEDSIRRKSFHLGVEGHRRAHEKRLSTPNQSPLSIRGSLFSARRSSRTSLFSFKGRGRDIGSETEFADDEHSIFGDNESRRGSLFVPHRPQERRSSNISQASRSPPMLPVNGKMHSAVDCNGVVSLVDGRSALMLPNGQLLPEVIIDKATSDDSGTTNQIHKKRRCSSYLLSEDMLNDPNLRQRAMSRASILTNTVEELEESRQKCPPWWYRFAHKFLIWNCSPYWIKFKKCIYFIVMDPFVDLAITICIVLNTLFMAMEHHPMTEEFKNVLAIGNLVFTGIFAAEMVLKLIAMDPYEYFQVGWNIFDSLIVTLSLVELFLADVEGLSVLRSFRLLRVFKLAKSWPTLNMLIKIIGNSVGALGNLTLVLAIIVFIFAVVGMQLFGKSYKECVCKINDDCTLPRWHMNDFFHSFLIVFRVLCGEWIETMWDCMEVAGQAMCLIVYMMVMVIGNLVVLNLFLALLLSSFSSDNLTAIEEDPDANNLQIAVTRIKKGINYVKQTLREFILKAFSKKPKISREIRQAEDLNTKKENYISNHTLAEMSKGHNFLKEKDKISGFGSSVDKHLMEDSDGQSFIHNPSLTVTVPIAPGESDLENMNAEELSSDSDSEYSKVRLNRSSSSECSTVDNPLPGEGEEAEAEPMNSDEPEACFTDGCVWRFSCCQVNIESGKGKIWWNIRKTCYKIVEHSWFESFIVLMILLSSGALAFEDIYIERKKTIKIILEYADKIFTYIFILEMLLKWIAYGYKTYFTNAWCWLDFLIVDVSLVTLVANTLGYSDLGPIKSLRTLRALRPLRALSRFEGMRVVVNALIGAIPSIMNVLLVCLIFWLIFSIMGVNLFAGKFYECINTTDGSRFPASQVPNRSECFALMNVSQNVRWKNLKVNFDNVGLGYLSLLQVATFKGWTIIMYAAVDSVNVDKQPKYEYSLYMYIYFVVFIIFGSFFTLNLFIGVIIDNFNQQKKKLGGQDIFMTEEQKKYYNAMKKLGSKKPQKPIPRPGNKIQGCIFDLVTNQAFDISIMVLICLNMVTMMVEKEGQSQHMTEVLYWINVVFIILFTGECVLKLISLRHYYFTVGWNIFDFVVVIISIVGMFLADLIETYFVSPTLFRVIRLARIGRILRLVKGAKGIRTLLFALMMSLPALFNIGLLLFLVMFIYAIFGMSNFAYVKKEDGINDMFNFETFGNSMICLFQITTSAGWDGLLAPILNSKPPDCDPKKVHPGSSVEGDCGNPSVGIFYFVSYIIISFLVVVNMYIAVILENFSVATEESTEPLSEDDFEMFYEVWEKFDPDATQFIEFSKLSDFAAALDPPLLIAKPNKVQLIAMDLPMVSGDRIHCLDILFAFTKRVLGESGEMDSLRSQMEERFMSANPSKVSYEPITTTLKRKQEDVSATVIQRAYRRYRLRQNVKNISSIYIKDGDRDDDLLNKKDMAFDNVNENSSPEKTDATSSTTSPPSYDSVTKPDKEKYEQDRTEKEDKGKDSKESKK

Dependence of the effect on H1 receptors [1]: independent of the H1 receptors | Inhibition of heterologously expressed human Nav1.7 channels [1]: inhibits | IC50 (Vh of −60 mV): 4 ± 0.1 µM | IC50 (Vh of −100 mV): 15.3 ± 0.1 µM
Structure (SMILES): COc1ccc(CN(CCN(C)C)c2ccccn2)cc1 [mepyramine, N,N-dimethyl-N′-(4-methoxybenzyl)-N′-(2-pyridyl) ethylenediamine]
